Experimental data published in ChEMBL document CHEMBL1201862, “PubChem BioAssay data set” (2004).
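Cultured in 96-well plates, cells were exposed to test compound for 48 hours across five concentrations. GI50: concentration for 50% inhibition of growth.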 Calls of active or inactive are those of the source. No stated cut-off is given here; in the data, active = GI50 up to about 1.1 µM and inactive = higher.

Legend:
Test in all cases: NCI anticancer screen, dose series, 48 h
786-0 = test system: 786-0
A549 = test system: A549
CAKI-1 = test system: CAKI-1
HCC 2998 = test system: HCC 2998
HCT-116 = test system: HCT-116
HCT-15 = test system: HCT-15
HL-60 = test system: HL-60
HOP-62 = test system: HOP-62
Malme-3M = test system: Malme-3M
NCI-H226 = test system: NCI-H226
NCI-H460 = test system: NCI-H460
OVCAR-5 = test system: OVCAR-5
SF-268 = test system: SF-268
SF-295 = test system: SF-295
SF-539 = test system: SF-539
SK-MEL-2 = test system: SK-MEL-2
SNB-19 = test system: SNB-19
U-251 = test system: U-251
UACC-62 = test system: UACC-62

Compound	GI50 (786-0)	GI50 (A549)	GI50 (CAKI-1)	GI50 (HCC 2998)	GI50 (HCT-116)	GI50 (HCT-15)	GI50 (HL-60)	GI50 (HOP-62)	GI50 (Malme-3M)	GI50 (NCI-H226)	GI50 (NCI-H460)	GI50 (OVCAR-5)	GI50 (SF-268)	GI50 (SF-295)	GI50 (SF-539)	GI50 (SK-MEL-2)	GI50 (SNB-19)	GI50 (U-251)	GI50 (UACC-62)
CCN(CC)CCOC(=O)c1ccc(N)cc1.CCOC(=O)Nc1ccc(S(=O)(=O)OC)cc1.CCOC(=O)Nc1ccc(S(=O)(=O)OC)cc1.Nc1ccc(C(=O)O)c(O)c1	> 100 µM (inactive)	> 100 µM (inactive)	> 100 µM (inactive)	> 100 µM (inactive)	> 100 µM (inactive)	> 100 µM	> 100 µM (inactive)	> 100 µM (inactive)	> 100 µM (inactive)	> 100 µM (inactive)	> 100 µM (inactive)	> 100 µM (inactive)	> 100 µM (inactive)	> 100 µM (inactive)	> 100 µM (inactive)	> 100 µM (inactive)	> 100 µM (inactive)	> 100 µM (inactive)	> 100 µM (inactive)
CC(C)C1CC[C@H](C)C[C@@H]1OC(=O)C(C(=O)O[C@H]1C[C@@H](C)CCC1C(C)C)C(O)[C@@H]1OC(C)(C)O[C@H]1C1COC(C)(C)O1 (some centres undefined)	16.6 µM (inactive)	22.3 µM (inactive)	16.3 µM (inactive)	13.8 µM (inactive)	11.7 µM (inactive)	20.7 µM	16.7 µM (inactive)	19.7 µM (inactive)	17.1 µM (inactive)	23.8 µM (inactive)	15 µM (inactive)	17.3 µM (inactive)	19.9 µM (inactive)	16.1 µM (inactive)	26.8 µM (inactive)	19.4 µM (inactive)	16.3 µM (inactive)	14.2 µM (inactive)	18.8 µM (inactive)
CC1CC2CCCC(=O)C2=C(O)O1 (centres undefined)	> 100 µM (inactive)	> 100 µM (inactive)	> 100 µM (inactive)	> 100 µM (inactive)	> 100 µM (inactive)	> 100 µM	> 100 µM (inactive)	> 100 µM (inactive)	> 100 µM (inactive)	> 100 µM (inactive)	> 100 µM (inactive)	> 100 µM (inactive)	> 100 µM (inactive)	> 100 µM (inactive)	> 100 µM (inactive)	> 100 µM (inactive)	31.6 µM (inactive)	> 100 µM (inactive)	> 100 µM (inactive)
CC(C)CC(=O)OC[n+]1ccc(-c2c(COC(=O)NC(C)C)c(COC(=O)NC(C)C)c3n2CCC3)cc1	> 100 µM (inactive)	> 100 µM (inactive)	45.2 µM (inactive)	> 100 µM (inactive)	> 100 µM (inactive)	> 100 µM	65.8 µM (inactive)	> 100 µM (inactive)	> 100 µM (inactive)	> 100 µM (inactive)	76.9 µM (inactive)	> 100 µM (inactive)	> 100 µM (inactive)	> 100 µM (inactive)	27.6 µM (inactive)	> 100 µM (inactive)	> 100 µM (inactive)	> 100 µM (inactive)	83.8 µM (inactive)
Cc1ccc2c(c1)c1ccc3c(c1n2C)C(=O)C=CC3=O	1.95 µM (inactive)	> 10 µM (inactive)	2.36 µM (inactive)	9.77 µM (inactive)	1.51 µM (inactive)	1.75 µM	0.75 µM (active)	> 10 µM (inactive)	2 µM (inactive)	> 6.85 µM (inactive)	> 10 µM (inactive)	> 10 µM (inactive)	3.43 µM (inactive)	> 10 µM (inactive)	2.32 µM (inactive)	7.48 µM (inactive)	> 10 µM (inactive)	> 7.31 µM (inactive)	3.01 µM (inactive)
Cn1nc2ccc([N+](=O)[O-])c(Cn3nnc4ccccc43)c2n1	> 100 µM (inactive)	> 100 µM (inactive)	> 100 µM (inactive)	> 100 µM (inactive)	> 100 µM (inactive)	> 100 µM	> 100 µM (inactive)	> 100 µM (inactive)	> 100 µM (inactive)	> 100 µM (inactive)	> 100 µM (inactive)	> 100 µM (inactive)	> 100 µM (inactive)	> 100 µM (inactive)	> 100 µM (inactive)	> 100 µM (inactive)	> 100 µM (inactive)	> 100 µM (inactive)	> 100 µM (inactive)
